Assay results: patent US20060167229A1, “Biologically active peptide conjugates” (priority 2002, published 2006)
Marks after values point to notes of the source that are not given here. Ends that are not written are not given here.

B1: IFN-γ: recombinant mouse IFN-γ (rmIFN-γ), Beijing Biotech Inc.; positive control (protein, UniProt P01580 23-155, looked up)
Interferon gamma: HGTVIESLESLNNYFNSSGIDVEEKSLFLDIWRNWQKDGDMKILQSQIISFYLRLFEVLKDNQAISNNISVIESHLITTFFSNSKAKKDAFMSIAKFEVNNPQVQRQAFNELIRVVHQLLPESSLRKRKRSRC

Assays:
Assay type in all cases: in vivo, BALB/c mice
NK cell = NK cell cytotoxicity activity test (spleen cells of treated mice against YAC-1 target cells, MTT); conditions: for NK cell cytotoxic activity, X ± SD (%): healthy mice; for effect on the cytotoxic activity of NK cells (summary): statistically significant difference from saline in any of the dosage groups 0.5-500 μg/kg/day
Summary of the method: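 YAC-1 target cells (1×10^5/ml) mixed with splenocytes (4×10^6/ml) from mice given test substances i.p. daily for 15 days (10 mice/group). Effector-only and target-only wells served as controls. MTT added at 1 mg/ml for 4 h at 37 °C; absorbance read at 570/630 nm.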

mononuclear phagocyte = assay: Carbon particle clearance test, phagocytosis function; design: key to X ± SD (phagocytotic index): α = cube root of K × (body weight ÷ liver+spleen weight); conditions: for X ± SD (phagocytotic index): healthy mice, saline 5.1 ± 0.6; for effect on the phagocytotic activity of mononuclear phagocyte (summary): statistically significant difference from saline in any of the dosage groups 0.5-500 μg/kg/day
Summary of the method: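 Clearance index K came from OD680 of blood sampled 1 and 5 min after tail-vein India ink ([…], diluted 5×), given on day 16. Phagocytic index α combined K with liver, spleen […] weights taken the same day.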

anti-SRBC antibody = assay: Sheep Red Blood Cell (SRBC) hemolysis test, antibody formation; conditions: for anti-SRBC antibody formation, X ± SD (Unit): healthy mice, SRBC day 12 (IFN-γ, IL-2 3×10^5 IU/kg/day), saline 32 ± 7; for effect on the synthesis of anti-SRBC antibody upon the antigenic challenge (summary): statistically significant difference from saline in any of the dosage groups 0.5-500 μg/kg/day
Summary of the method: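 Antibody formation was read as haemolysis: 500-fold diluted serum, collected on day 16 after intraperitoneal SRBC (0.2 ml, day 12), was mixed with 2% SRBC plus complement for 10 min at 37° C. Supernatant haemoglobin measured with Drabkin reagent at OD540, indexed against a reference SRBC lysate ×500.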

thymus gland = assay: Immunity organ weight test, thymus gland index; conditions: for weight of thymus gland (thymus gland index), X ± SD (%): healthy mice, saline 0.12 ± 0.02; for effect on the weight of the thymus gland (summary): statistically significant difference from saline in any of the dosage groups 0.5-500 μg/kg/day
Description: One day after the last test substance administration (day 16), the liver, spleen, and thymus gland were separated and blotted dry with filter paper and weighed. The phagocytosis index α was calculated as below: α=(^3√{square root over ( )}K)(W÷WLS)
Thymus gland index (%)=(thymus weight/body weight)×100%

[1] = peptide 500 μg/kg/day i.p. 15 days (IFN-γ, IL-2 3×10^5 IU/kg/day), saline 63 ± 9
[2] = peptide 5 μg/kg/day i.p. 15 days (IFN-γ, IL-2 3×10^5 IU/kg/day)
[3] = peptide 5 μg/kg/day i.p. 15 days
[4] = peptide 500 μg/kg/day i.p. 15 days
[5] = peptide 50 μg/kg/day i.p. 15 days (IFN-γ, IL-2 3×10^5 IU/kg/day)
[6] = peptide 500 μg/kg/day i.p. 15 days (IFN-γ, IL-2 3×10^5 IU/kg/day)
[7] = peptide 0.5 μg/kg/day i.p. 15 days (IFN-γ, IL-2 3×10^5 IU/kg/day), saline 58 ± 7
[8] = peptide 5 μg/kg/day i.p. 15 days (IFN-γ, IL-2 3×10^5 IU/kg/day), saline 60 ± 9
[9] = peptide 0.5 μg/kg/day i.p. 15 days (IFN-γ, IL-2 3×10^5 IU/kg/day)
[10] = peptide 0.5 μg/kg/day i.p. 15 days
[11] = peptide 50 μg/kg/day i.p. 15 days
[12] = peptide 50 μg/kg/day i.p. 15 days (IFN-γ, IL-2 3×10^5 IU/kg/day), saline 56 ± 8

Molecule	NK cell cytotoxic activity, X ± SD (%) (NK cell; [1])	effect on the cytotoxic activity of NK cells (summary) (NK cell)	X ± SD (phagocytotic index) (mononuclear phagocyte; [2])	effect on the phagocytotic activity of mononuclear phagocyte (summary) (mononuclear phagocyte)	anti-SRBC antibody formation, X ± SD (Unit) (anti-SRBC antibody; [3])	anti-SRBC antibody formation, X ± SD (Unit) (anti-SRBC antibody; [4])	effect on the synthesis of anti-SRBC antibody upon the antigenic challenge (summary) (anti-SRBC antibody)	weight of thymus gland (thymus gland index), X ± SD (%) (thymus gland; [2])	weight of thymus gland (thymus gland index), X ± SD (%) (thymus gland; [5])	weight of thymus gland (thymus gland index), X ± SD (%) (thymus gland; [6])	effect on the weight of the thymus gland (summary) (thymus gland)	NK cell cytotoxic activity, X ± SD (%) (NK cell; [7])	NK cell cytotoxic activity, X ± SD (%) (NK cell; [8])	X ± SD (phagocytotic index) (mononuclear phagocyte; [6])	weight of thymus gland (thymus gland index), X ± SD (%) (thymus gland; [9])	anti-SRBC antibody formation, X ± SD (Unit) (anti-SRBC antibody; [10])	anti-SRBC antibody formation, X ± SD (Unit) (anti-SRBC antibody; [11])	NK cell cytotoxic activity, X ± SD (%) (NK cell; [12])	X ± SD (phagocytotic index) (mononuclear phagocyte; [9])	X ± SD (phagocytotic index) (mononuclear phagocyte; [5])
IGMESAGIHETTY [CMS016]	91 ± 7*^@^ %	increase	6.9 ± 0.8*^	enhance	93 ± 32*^@ Unit	143 ± 38*^@^ Unit	enhance	0.22 ± 0.06 %	0.20 ± 0.03*^@^ %	0.18 ± 0.05 %	increase	–	–	–	–	–	–	–	–	–
KAVGHLDDLPGAL [CMS008]	–	–	6.4 ± 0.5	enhance	97 ± 26*^@ Unit	82 ± 15*^@ Unit	enhance	–	0.20 ± 0.04*^@^ %	0.21 ± 0.03*^@^ %	increase	46 ± 12	92 ± 4*^@^ %	6.5 ± 1.2	0.22 ± 0.07*^ %	–	–	–	–	–
LRVAPQQHPTL [CMS009]	–	increase	6.9 ± 0.9*^	enhance	79 ± 18*^@ Unit	113 ± 22*^@^ Unit	–	–	–	–	–	–	92 ± 6*^@^ %	–	–	2 ± 1 Unit	13 ± 5 Unit	–	–	–
Phe Val Asn Asp (FVND; listed as Sus scrofa) [CMS035]	90 ± 10 %	increase	6.9 ± 0.9*^	enhance	176 ± 39*^@^ Unit	88 ± 16*^@ Unit	enhance	0.21 ± 0.04 %	–	0.21 ± 0.03*^@^ %	increase	76 ± 10	–	–	–	–	97 ± 10*^@^ Unit	72 ± 9	–	–
RVAPQQHPTL [CMS011]	–	increase	6.4 ± 1.1	enhance	115 ± 27*^@^ Unit	188 ± 16*^@^ Unit	–	0.22 ± 0.04 %	–	–	–	79 ± 3	76 ± 10 %	–	–	5 ± 3 Unit	67 ± 9*^@ Unit	–	–	–
Tyr Ser Leu (YSL; listed as Sus scrofa) [CMS024]	89 ± 8 %	increase	–	enhance	171 ± 39*^@^ Unit	75 ± 29*^@ Unit	enhance	0.23 ± 0.06*^ %	0.27 ± 0.02*^@^ %	–	increase	–	78 ± 3 %	6.4 ± 1.0	–	98 ± 6*^@^ Unit	–	–	6.7 ± 0.5*^	6.6 ± 0.7
Tyr Ser Phe (YSF; listed as Sus scrofa) [CMS022]	–	increase	–	enhance	–	68 ± 31*^@ Unit	enhance	0.25 ± 0.04*^@^ %	0.30 ± 0.03*^@^ %	0.26 ± 0.05*^@^ %	increase	73 ± 11	–	7.4 ± 0.6*^@^	0.21 ± 0.06 %	–	110 ± 16*^@^ Unit	–	–	–
VAPEEHPTLLTEAPLNPK [CMS010]	91 ± 4*^@^ %	increase	7.1 ± 0.7*^	enhance	–	112 ± 30*^@^ Unit	–	0.27 ± 0.05*^@^ %	–	0.19 ± 0.04 %	increase	–	82 ± 9 %	–	0.21 ± 0.03 %	10 ± 3 Unit	–	–	–	–
VGMGQKDSYV [CMS020]	–	increase	–	enhance	89 ± 24*^@ Unit	155 ± 35*^@^ Unit	–	0.24 ± 0.07*^@^ %	0.27 ± 0.03*^@^ %	0.19 ± 0.04 %	increase	–	91 ± 6 %	6.4 ± 0.6	0.23 ± 0.05*^@^ %	10 ± 3 Unit	–	–	–	–
B1	77 ± 8 %	–	6.4 ± 0.9	–	37 ± 10 Unit	37 ± 10 Unit	–	0.15 ± 0.04%	0.15 ± 0.04%	0.15 ± 0.04%	–	72 ± 9	80 ± 8 %	6.4 ± 0.9	0.15 ± 0.04%	37 ± 10 Unit	37 ± 10 Unit	73 ± 10	6.4 ± 0.9	6.4 ± 0.9
